Experiments:
Format in all cases: in vivo
[1] = system: barnyardgrass (Echinochloa crus-galli); experiment: Test Example 2: foliar treatment on upland fields; set-up: key: rating; 4–5 = excellent activity, 3 or lower = insufficient; conditions: 32 g/ha active ingredient; foliar spray; examined 19 days after application
Source text: (§1) The herbicidal activity is excellent when rated at “4” or “5” but insufficient when rated at “3” or lower. The phytotoxicity is no problematic on practical use when rated at “0” or “1” but not allowed when rated at “2” or higher.
(§2) Cylindrical plastic pots of 10 cm in diameter and 10 cm in depth were filled with soil, in which the seeds of barnyardgrass (Echinochloa crus-galli), entireleaf morningglory (Ipomoea hederacea var. integriuscula) and velvetleaf (Abutilon theophrash) were sowed, and the test plants were grown in a greenhouse for 19 days. Each of the test compounds listed below was formulated into an emulsifiable concentrate according to Formulation Example 2, which was diluted with water containing a spreading agent to a prescribed concentration. The dilution was uniformly sprayed over the foliage of the test plants with a sprayer at a volume of 1000 liters per hectare. After the application, the test plants were grown in the greenhouse for 19 days, and the herbicidal activity was examined.

[2] = system: velvetleaf (Abutilon theophrash); experiment: Test Example 2: foliar treatment on upland fields; set-up: key: rating; 4–5 = excellent activity, 3 or lower = insufficient; conditions: 32 g/ha active ingredient; foliar spray; examined 19 days after application
Source text: as §1, §2

[3] = system: entireleaf morningglory (Ipomoea hederacea var. integriuscula); experiment: Test Example 2: foliar treatment on upland fields; set-up: key: rating; 4–5 = excellent activity, 3 or lower = insufficient; conditions: 32 g/ha active ingredient; foliar spray; examined 19 days after application
Source text: as §1, §2

[4] = system: velvetleaf (Abutilon theophrash); experiment: Test Example 1: foliar treatment on upland fields; conditions: 500 g/ha active ingredient; foliar spray; examined 19 days after application
Experimental: as §2, with “barnyardgrass (Echinochloa crus-galli), entireleaf morningglory” left out

[5] = system: entireleaf morningglory (Ipomoea hederacea var. integriuscula); experiment: Test Example 1: foliar treatment on upland fields; conditions: 500 g/ha active ingredient; foliar spray; examined 19 days after application
Experimental: as §2, with “barnyardgrass (Echinochloa crus-galli), entireleaf morningglory” left out

[6] = system: velvetleaf (Abutilon theophrash); experiment: Test Example 3: soil surface treatment on upland fields; conditions: 500 g/ha active ingredient; soil surface spray; examined after 19 days
Experimental: (§3) Cylindrical plastic pots of 10 cm in diameter and […] in depth were filled with soil, in which the seeds of […] (Ipomoea hederacea var. integriuscula) and velvetleaf (Abutilon theophrash) were sowed. Each of the test compounds listed below was formulated into an emulsifiable concentrate according to Formulation Example 2, which was diluted with water to a prescribed concentration. The dilution was uniformly sprayed over the soil surface in the pots with a sprayer at a volume of 1000 liters per hectare. After the application, the test plants were grown in a greenhouse for 19 days, and the herbicidal activity was examined.

[7] = system: entireleaf morningglory (Ipomoea hederacea var. integriuscula); experiment: as above; conditions: 500 g/ha active ingredient; soil surface spray; examined after 19 days
Experimental: as §3

[8] = system: barnyardgrass (Echinochloa oryzicola); experiment: Test Example 4: flooding treatment on paddy fields; conditions: application amount of active ingredient 250 g/ha, examined 19 days after application, index 0 to 5
Experimental: Cylindrical plastic pots of 9 cm in diameter and 11 cm in depth were filled with soil, in which the seeds of barnyardgrass (Echinochloa oryzicola) were sowed. These pots were flooded to form a paddy field, and the test plants were grown in a greenhouse for 7 days. Each of the test compounds listed below was formulated into an emulsifiable concentrate according to Formulation Example 2, which was diluted with water to a prescribed concentration. The dilution was applied to the water surface in the pots at a volume of 50 liters per hectare. After the application, the test plants were grown in the greenhouse for 19 days, and the herbicidal activity was examined.

COC(=O)C(C)Sc1cc(-n2ncc(C(F)(F)F)cc2=O)c(F)cc1Cl (stereo not drawn) [Compound 1-1221, Methyl 2-{2-chloro-4-fluoro-5-(5-trifluoromethyl-3-pyridazinon-2-yl)phenylthio}propionate]
5: Herbicidal activity Barnyardgrass [1] | Herbicidal activity Velvetleaf [2] | Herbicidal activity Entireleaf morningglory [3] | Herbicidal activity Velvetleaf [4] | Herbicidal activity Entireleaf morningglory [5] | Herbicidal activity Velvetleaf [6] | Herbicidal activity Entireleaf morningglory [7] | Herbicidal activity Barnyardgrass [8]

Cc1c(C(F)(F)F)cnn(-c2cc(NS(C)(=O)=O)c(Cl)cc2F)c1=O [Compound 1-367, N-[2-chloro-4-fluoro-5-(4-methyl-5-trifluoromethyl-3-pyridazinon-2-yl)phenyl]methanesulfonamide]
5: Herbicidal activity Velvetleaf [4] | Herbicidal activity Entireleaf morningglory [5] | Herbicidal activity Velvetleaf [6] | Herbicidal activity Entireleaf morningglory [7] | Herbicidal activity Barnyardgrass [8]

Cc1c(C(F)(F)F)cnn(-c2c(F)cc(Cl)c3c2CC(C)(C)O3)c1=O [Compound 4-451]
5: Herbicidal activity Velvetleaf [4] | Herbicidal activity Entireleaf morningglory [5] | Herbicidal activity Barnyardgrass [8]

C#CCN1C(=O)COc2cc(F)c(-n3nc(C)c(C(F)(F)F)cc3=O)cc21 [Compound 2-821, 7-fluoro-6-(6-methyl-5-trifluoromethyl-3-pyridazinon-2-yl)-4-propargyl-2H-1,4-benzoxazin-3-one]
5: Herbicidal activity Barnyardgrass [1] | Herbicidal activity Velvetleaf [2] | Herbicidal activity Entireleaf morningglory [3] | Herbicidal activity Velvetleaf [4] | Herbicidal activity Entireleaf morningglory [5] | Herbicidal activity Velvetleaf [6] | Herbicidal activity Entireleaf morningglory [7] | Herbicidal activity Barnyardgrass [8]

CCOC(=O)C(C)Nc1cc(-n2ncc(C(F)(F)F)c(C)c2=O)c(F)cc1Cl (stereo not drawn) [Compound 1-420, Ethyl 2-{2-chloro-4-fluoro-5-(4-methyl-5-trifluoromethyl-3-pyridazinon-2-yl)phenylamino}propionate]
5: Herbicidal activity Barnyardgrass [1] | Herbicidal activity Velvetleaf [2] | Herbicidal activity Entireleaf morningglory [3] | Herbicidal activity Velvetleaf [4] | Herbicidal activity Entireleaf morningglory [5] | Herbicidal activity Velvetleaf [6] | Herbicidal activity Entireleaf morningglory [7] | Herbicidal activity Barnyardgrass [8]

CCOC(=O)C(C)Sc1cc(-n2ncc(C(F)(F)F)cc2=O)c(F)cc1Cl (stereo not drawn) [Compound 1-1222, Ethyl 2-{2-chloro-4-fluoro-5-(5-trifluoromethyl-3-pyridazinon-2-yl)phenylthio}propionate]
5: Herbicidal activity Barnyardgrass [1] | Herbicidal activity Velvetleaf [2] | Herbicidal activity Entireleaf morningglory [3] | Herbicidal activity Velvetleaf [4] | Herbicidal activity Entireleaf morningglory [5] | Herbicidal activity Velvetleaf [6] | Herbicidal activity Entireleaf morningglory [7] | Herbicidal activity Barnyardgrass [8]

COC(=O)C1(C)Cc2c(c(Cl)cc(F)c2-n2ncc(C(F)(F)F)c(C)c2=O)O1 (stereo not drawn) [Compound 4-434]
5: Herbicidal activity Barnyardgrass [1] | Herbicidal activity Velvetleaf [2] | Herbicidal activity Entireleaf morningglory [3] | Herbicidal activity Velvetleaf [4] | Herbicidal activity Entireleaf morningglory [5] | Herbicidal activity Velvetleaf [6] | Herbicidal activity Entireleaf morningglory [7] | Herbicidal activity Barnyardgrass [8]

CCC(C)n1c(=O)sc2cc(F)c(-n3ncc(C(F)(F)F)c(C)c3=O)cc21 (stereo not drawn) [Compound 2-328]
5: Herbicidal activity Velvetleaf [4] | Herbicidal activity Entireleaf morningglory [5] | Herbicidal activity Velvetleaf [6] | Herbicidal activity Entireleaf morningglory [7] | Herbicidal activity Barnyardgrass [8]

Cc1c(C(F)(F)F)cnn(-c2cc(NS(=O)(=O)CCl)c(Cl)cc2F)c1=O [Compound 1-369, N-{2-chloro-4-fluoro-5-(4-methyl-5-trifluoromethyl-3-pyridazinon-2-yl)phenyl}chloromethanesulfonamide]
5: Herbicidal activity Barnyardgrass [1] | Herbicidal activity Velvetleaf [2] | Herbicidal activity Entireleaf morningglory [3] | Herbicidal activity Velvetleaf [4] | Herbicidal activity Entireleaf morningglory [5] | Herbicidal activity Velvetleaf [6] | Herbicidal activity Entireleaf morningglory [7] | Herbicidal activity Barnyardgrass [8]

Cc1c(C(F)(F)F)cnn(-c2cc(OC(C)C)c(Cl)cc2F)c1=O [Compound 1-476, 2-[2-fluoro-4-chloro-5-isopropoxyphenyl]4-methyl-5-trifluoromethylpyridazin-3-one]
5: Herbicidal activity Velvetleaf [4] | Herbicidal activity Entireleaf morningglory [5] | Herbicidal activity Velvetleaf [6] | Herbicidal activity Entireleaf morningglory [7] | Herbicidal activity Barnyardgrass [8]

O=c1cc(C(F)(F)F)cnn1-c1ccc(Cl)cc1 [Compound 1-332, 2-(4-chlorophenyl)-5-trifluoromethylpyridazin-3-one]
5: Herbicidal activity Velvetleaf [4] | Herbicidal activity Entireleaf morningglory [5] | Herbicidal activity Velvetleaf [6] | Herbicidal activity Entireleaf morningglory [7] | Herbicidal activity Barnyardgrass [8]

Cc1c(C(F)(F)F)cnn(-c2cc(OC(C)C)c(Br)cc2F)c1=O [Compound 1-1783, 2-(4-bromo-2-fluoro-5-isopropyloxyphenyl)-4-methyl-5-trifluoromethylpyridazin-3-one]
5: Herbicidal activity Barnyardgrass [1] | Herbicidal activity Velvetleaf [2] | Herbicidal activity Entireleaf morningglory [3] | Herbicidal activity Velvetleaf [4] | Herbicidal activity Entireleaf morningglory [5] | Herbicidal activity Velvetleaf [6] | Herbicidal activity Entireleaf morningglory [7] | Herbicidal activity Barnyardgrass [8]

Cc1c(C(F)(F)F)cnn(-c2cc(O)c(Cl)cc2F)c1=O [Compound 1-391, 2-[2-fluoro-4-chloro-5-hydroxyphenyl]4-methyl-5-trifluoromethylpyridazin-3-one]
5: Herbicidal activity Velvetleaf [4] | Herbicidal activity Entireleaf morningglory [5] | Herbicidal activity Velvetleaf [6] | Herbicidal activity Entireleaf morningglory [7] | Herbicidal activity Barnyardgrass [8]

Cc1cc2c(-n3ncc(C(F)(F)F)c(C)c3=O)c(F)cc(Cl)c2o1 [Compound 3-139]
5: Herbicidal activity Velvetleaf [4] | Herbicidal activity Entireleaf morningglory [5] | Herbicidal activity Barnyardgrass [8]

Reference: patent US6869913B1, “Pyridazin-3-one derivatives, their use and intermediates for their production” (Sumitomo Chemical Company, Limited, priority 1995, dated 2005)
